Legend:
Format in all cases: in vivo
Scirpus juncoides = assay: Test Example 1: herbicidal activity, application before weed generation in submerged conditions (symbol B); details: application herbicide amount 320 g/ha
Method in brief: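 Paddy pre-emergence test. Formulated emulsion, water-diluted to a predetermined rate, is applied to floodwater on sowing day; rice transplanted at 2.5 leaves. Effect read at 3 weeks on a 0–5 herbicidal-ratio scale.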

Leptochloa chinensis = assay: Test Example 3: herbicidal effect by foliage application, Wagner pot (symbol D); details: application herbicide amount 320 g/ha
Method in brief: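 Rating at 3 weeks post-spray, by defined criteria. Treatment: emulsion diluted with water to a predetermined amount, applied evenly to foliage of 14-day-old plants raised in alluvial soil flooded 0.1–0.5 cm deep at 25–30 °C, rice co-sown.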

Setaria viridis = assay: Test Example 4: herbicidal effect by soil treatment (symbol G); details: application herbicide amount 320 g/ha
Method in brief: (§1)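 Seeds were sown in sterilized diluvial soil, covered with about 1.5 cm of soil, and the soil surface was sprayed with a water-diluted emulsion of the compound at a predetermined rate. Plants grew in a greenhouse at 25° C. to 30° C.; effects were scored visually 3 weeks after application.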

Avena fatua [1] = assay: Test Example 4: herbicidal effect by soil treatment (symbol I); details: application herbicide amount 320 g/ha
Method in brief: as §1

Apera spica-venti [2] = assay: Test Example 4: herbicidal effect by soil treatment (symbol L); details: application herbicide amount 320 g/ha
Method in brief: as §1

Amaranthus retroflexus = assay: Test Example 4: herbicidal effect by soil treatment (symbol N); details: application herbicide amount 320 g/ha
Method in brief: as §1

Galium spurium [3] = assay: Test Example 4: herbicidal effect by soil treatment (symbol Q); details: application herbicide amount 320 g/ha
Method in brief: as §1

soybean = assay: Test Example 4: effect on crop by soil treatment (symbol d); details: application herbicide amount 320 g/ha
Method in brief: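 Seeds were sown in spots on sterilized diluvial soil in a plastic box and covered with about 1.5 cm of soil. Plants were then grown in a greenhouse at 25° C. to 30° C.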

Digitaria ciliaris = assay: Test Example 5: herbicidal effect by foliage application, plastic box (symbol F); details: 320 g/ha, 3 weeks after application
Method in brief: (§2)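 Effect is rated 3 weeks after a foliar spray of water-diluted emulsion concentrate at a predetermined herbicide amount. Plants had grown 14 days in a 25° C. to 30° C. greenhouse from seed in sterilized diluvial soil.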

[4] = system: Echinochloa crus-galli var. crus-galli; assay: Test Example 5: herbicidal effect by foliage application, plastic box (symbol H); details: 320 g/ha, 3 weeks after application
Method in brief: as §2

Avena fatua [5] = assay: Test Example 5: herbicidal effect by foliage application, plastic box (symbol I); details: 320 g/ha, 3 weeks after application
Method in brief: as §2

Apera spica-venti [6] = assay: Test Example 5: herbicidal effect by foliage application, plastic box (symbol L); details: 320 g/ha, 3 weeks after application
Method in brief: as §2

Abutilon theophrasti = assay: Test Example 5: herbicidal effect by foliage application, plastic box (symbol M); details: 320 g/ha, 3 weeks after application
Method in brief: as §2

Chenopodium album = assay: Test Example 5: herbicidal effect by foliage application, plastic box (symbol O); details: 320 g/ha, 3 weeks after application
Method in brief: as §2

Stellaria media = assay: Test Example 5: herbicidal effect by foliage application, plastic box (symbol P); details: 320 g/ha, 3 weeks after application
Method in brief: as §2

Galium spurium [7] = assay: Test Example 5: herbicidal effect by foliage application, plastic box (symbol Q); details: 320 g/ha, 3 weeks after application
Method in brief: as §2

Veronica persica = assay: Test Example 5: herbicidal effect by foliage application, plastic box (symbol R); details: 320 g/ha, 3 weeks after application
Method in brief: as §2

beet = assay: Test Example 5: effect on crop by foliage application, plastic box (symbol f); details: 320 g/ha, 3 weeks after application
Method in brief: (§3)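 Diluvial soil, sterilized and boxed (21 × 13 × 7 cm), received spot-sown seed covered by about 1.5 cm soil; plants were then greenhouse-grown at 25–30° C.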

rapeseed = assay: Test Example 5: effect on crop by foliage application, plastic box (symbol g); details: 320 g/ha, 3 weeks after application
Method in brief: as §3

Compound: CON=C(C)CC1CC(O)=C(c2c(C)cc(Oc3ccccc3)cc2C)C1=O (stereo not shown) [6-052]
- Herbicidal effect grade, B: Scirpus juncoides (Scirpus juncoides): 1 (Herbicidal ratio of 5% or higher and lower than 20%)
- herbicidal effect on D (Leptochloa chinensis), grade 0-5 (Leptochloa chinensis): 5 (Herbicidal ratio of 90% or more (almost completely withered))
- G: Setaria viridis, herbicidal effect grade (Setaria viridis): 3 (Herbicidal ratio of 40% or higher and lower than 70%)
- I: Avena fatua, herbicidal effect grade (Avena fatua [1]): 0 (Herbicidal ratio of 5% or lower (almost no effect))
- L: Apera spica-venti, herbicidal effect grade (Apera spica-venti [2]): 5 (Herbicidal ratio of 90% or more (almost completely withered))
- N: Amaranthus retroflexus, herbicidal effect grade (Amaranthus retroflexus): 0 (Herbicidal ratio of 5% or lower (almost no effect))
- Q: Galium spurium, herbicidal effect grade (Galium spurium [3]): 0 (Herbicidal ratio of 5% or lower (almost no effect))
- d: soybean, effect on crop grade (soybean): 0 (Herbicidal ratio of 5% or lower (almost no effect))
- F: Digitaria ciliaris, herbicidal effect grade (Digitaria ciliaris): 5 (Herbicidal ratio of 90% or more (almost completely withered))
- H: Echinochloa crus-galli var. crus-galli, herbicidal effect grade [4]: 5 (Herbicidal ratio of 90% or more (almost completely withered))
- I: Avena fatua, herbicidal effect grade (Avena fatua [5]): 2 (Herbicidal ratio of 20% or higher and lower than 40%)
- L: Apera spica-venti, herbicidal effect grade (Apera spica-venti [6]): 4 (Herbicidal ratio of 70% or higher and lower than 90%)
- M: Abutilon theophrasti, herbicidal effect grade (Abutilon theophrasti): 0 (Herbicidal ratio of 5% or lower (almost no effect))
- O: Chenopodium album, herbicidal effect grade (Chenopodium album): 0 (Herbicidal ratio of 5% or lower (almost no effect))
- P: Stellaria media, herbicidal effect grade (Stellaria media): 0 (Herbicidal ratio of 5% or lower (almost no effect))
- Q: Galium spurium, herbicidal effect grade (Galium spurium [7]): 0 (Herbicidal ratio of 5% or lower (almost no effect))
- R: Veronica persica, herbicidal effect grade (Veronica persica): 0 (Herbicidal ratio of 5% or lower (almost no effect))
- f: beet, effect on crop grade (beet): 0 (Herbicidal ratio of 5% or lower (almost no effect))
- g: rapeseed, effect on crop grade (rapeseed): 3 (Herbicidal ratio of 40% or higher and lower than 70%)
